Source: paper PMC10826043 (BMC Complementary Medicine and Therapies, 2024)
Where two headings read alike, the source gives them in different places. One block for each compound: values may come before it.

Assays:
α-amylase [1] = details: validation set, cited from earlier work
[2] = target: T1, α-amylase from porcine pancreas (Sus scrofa, UniProt P00690); assay: In vitro pancreatic α-amylase inhibitory assay (starch/DNS, 540 nm); assay type: biochemical; details: 1% starch, pH 6.9, 25 °C, read-out: IC50 (α-amylase inhibition)
T1 construct: α-amylase from porcine pancreas (A3176); purchased Sigma-Aldrich (Germany) A3176; host or cells: porcine pancreas (tissue-derived)
T1 sequence (P00690 16-511): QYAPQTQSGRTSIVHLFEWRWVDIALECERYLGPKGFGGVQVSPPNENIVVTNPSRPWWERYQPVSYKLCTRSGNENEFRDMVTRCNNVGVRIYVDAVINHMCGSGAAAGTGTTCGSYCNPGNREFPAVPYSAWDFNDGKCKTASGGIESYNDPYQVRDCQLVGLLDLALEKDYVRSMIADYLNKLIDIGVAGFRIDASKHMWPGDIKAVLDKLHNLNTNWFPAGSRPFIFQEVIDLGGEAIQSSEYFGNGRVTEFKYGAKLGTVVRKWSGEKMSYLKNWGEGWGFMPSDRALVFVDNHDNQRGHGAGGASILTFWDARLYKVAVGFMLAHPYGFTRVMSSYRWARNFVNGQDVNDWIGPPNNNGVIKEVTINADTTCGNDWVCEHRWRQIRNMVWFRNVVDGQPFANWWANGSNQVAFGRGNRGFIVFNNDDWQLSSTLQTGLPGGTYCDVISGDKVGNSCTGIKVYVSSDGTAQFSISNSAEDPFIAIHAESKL
Experimental: Analytical purity grade solvents were used throughout the study.
With reference to the established technique, the assay was carried out quantitatively with minor adjustments. Initially, 500µL test solution was preincubated with 500µL α-amylase solution (0.55 unit/mL) at 25°C for 10 min. The α-amylase was prepared in a buffer solution (0.02M sodium phosphate pH 6.9 with 0.006M NaCl). Afterwards, 500µL of 1% w/v starch in buffer solution was mixed in and left to incubate for 10 min at 25°C. To bring the reaction to a halt, 1mL dinitrosalicylic acid (DNS) was introduced and the mixture was placed in a boiling water bath for 3.5 min. After cooling to room temperature, the mixture was then diluted using 10mL distilled water and absorbance was measured using a Laxco spectrophotometer (α1502, Laxco Inc., USA) at λ 540nm. Blanks used throughout the experiment were made by adding pure buffer instead of α-amylase solution. […] To calculate the pancreatic α-amylase inhibitory activity, the following equation was used: %Inhibtion=100×1-Abs540nmExtract-Abs540nmPositivecontrol/Abs540nmNegativecontrol-Abs540nmPositivecontrol

α-amylase [3] = target: T2, α-amylase (Sus scrofa, UniProt P00690); assay: Combination analysis of α-amylase inhibition (CompuSyn: median-effect, isobologram, CI, DRI); assay type: biochemical, porcine; details: for Dose (mM) Kaempferol: kaempferol alone
T2 construct: α-amylase from porcine pancreas (A3176); purchased Sigma-Aldrich (Germany) A3176; host or cells: porcine pancreas (tissue-derived)
T2 sequence (P00690 16-511): T1 sequence (P00690 16-511)
From the text: These include: median effect, isobolographic, combination index, and lastly, dose reduction index analyses.
Data input included each inhibitors’ independent activity and the summation of both inhibitors’ activity when used in conjunction of each other. […] 2.6.
This method of analysis relies on its namesake equation, the median-effect equation which stems from the general mass-action law principle. Each inhibitor’s sigmoidal dose–effect plot was individually generated in addition to their respective combination. Thereafter, the plot was transfigured linearly into median-effect plots. The median-effect equation is described as: fa/fu=D/Dm^m
D represents the dose of the inhibitor, Dm is the inhibitor’s dose causing a decrease of 50% in the enzyme’s activity, fa is the fraction affected by dose D , fu is the unaffected fraction ( fu = 1 – fa ), and m the curve’s sigmoidicity coefficient. Through logarithmic transformation, the equation becomes: Logfa/fu=mlogD-mlog(Dm)
This, in turn, results in the median-effect plot. A plot where y=log(fa/fu) against x=log(D) with m being the slope and log(Dm) , the x-intercept. Dm and m are obtained from the median-effect plot. To determine the data’s conformity to the general mass-action principle, the linear correlation coefficient (r) of the plot is assessed.
Using each inhibitor’s individual effect, this method of analysis is employed to assess the combined effect of two inhibitors. A graph, wherein the x- and y- axes represent the doses of inhibitors A and B, respectively, is plotted. The doses, a and b denote the dose of inhibitor A and B, respectively, resulting in the same efficacy when used individually. (e.g.: At x % inhibition, a = CA,x and b = CB,x ). To assess the combined effects of inhibitors A and B, an additive line must first be established. This is accomplished by connecting two points of the same efficacy (e.g.: connecting a with b). Based on the respective position of the combination data points relative to the additive line, the nature of the interaction can be determined; synergism, addition, or antagonism are indicated by data points lying below, on, or above the additive line, respectively.
The combination index (CI) quantitatively evaluates the type of interaction between two inhibitors at a series of inhibition levels. CI is calculated by means of the following equation [38]: CI=CA,x/ICx,A+CB,x/ICx,B Where ICx,A and ICx,B are the doses of inhibitors A and B, respectively, required to produce x % inhibition when each inhibitor is used individually. Whereas CA,x and CB,x are the doses of inhibitors A and B, respectively, required to produce x % inhibition when a binary mixture is used. Based on the resulting CI, the nature of the inhibitors’ interaction can be concluded. A CI lower than, equal to, or greater than 1 is indicative of synergism, addition, or antagonism, respectively. Alternatively, the interaction present between the two inhibitors can be deduced via the combination index ( fa -CI) plot.
The dose reduction index (DRI) was calculated for synergistic binary combinations to measure the fold decrease in the dose of each inhibitor at a given effect level, relative to the dose of each inhibitor when used solitarily resulting in the same effect. DRI can be calculated as follows: DRI=IC50[solitaryinhibitor]/IC50[inhibitorincombination]
DRI values > 1 are favored, reflecting a decrease in dose while maintaining or enhancing the inhibitor’s efficacy.

Structure (SMILES): O=C(O)c1cc(O)c(O)c(O)c1 [Gallic acid]
IC50 (α-amylase [1]; supplement ref [7]): 27.8 ± 2.06 µM

Structure (SMILES): COc1cc(-c2oc3cc(O)cc(O)c3c(=O)c2O)ccc1O [Isorhamnetin]
IC50 (α-amylase [1]; supplement ref [12]): 24900 ± 427 µM

Structure (SMILES): COc1ccc(-c2oc3cc(O)cc(O)c3c(=O)c2O)cc1 [Kaempferide]
IC50 (α-amylase [1]; supplement ref [3]): 22.9 ± 3.17 µM

Structure (SMILES): O=c1c(O)c(-c2ccc(O)cc2)oc2cc(O)cc(O)c12 [Kaempferol]
IC50 [2]: 4840 ± 140 µM
IC50 (α-amylase [1]; supplement ref [3]): 16.5 ± 1.84 µM
IC50 (α-amylase [3]): 4840 µM
m (slope of median-effect plot) (α-amylase [3]): 1.18
r (correlation coefficient of median-effect plot) (α-amylase [3]): 1.00
DRI Kaempferol (α-amylase [3]; fold dose reduction in combination with acarbose at 26% inhibition): 2.66
DRI Kaempferol (α-amylase [3]; fold dose reduction in combination with acarbose at 86% inhibition): 2.27
DRI Kaempferol (α-amylase [3]; fold dose reduction in combination with acarbose at 91% inhibition): 1.11
Dose (mM) Kaempferol (α-amylase [3]; dose needed for 26% inhibition): 1.99 mM
Dose (mM) Kaempferol (α-amylase [3]; dose needed for 86% inhibition): 22.6 mM
Dose (mM) Kaempferol (α-amylase [3]; dose needed for 91% inhibition): 34.5 mM

Structure (SMILES): Oc1cc(O)c2c(c1)O[C@H](c1ccc(O)c(O)c1)[C@H](O)C2 [L-epicatechin]
IC50 (α-amylase [1]; supplement ref [3]): 31.5 ± 2.21 µM

Structure (SMILES): O=c1cc(-c2ccc(O)c(O)c2)oc2cc(O)cc(O)c12 [Luteolin]
IC50 [2]: 6320 ± 30 µM
IC50 (α-amylase [1]; supplement ref [3]): 14.6 ± 0.74 µM

Structure (SMILES): O=c1c(O)c(-c2cc(O)c(O)c(O)c2)oc2cc(O)cc(O)c12 [Myricetin]
IC50 [2]: 4910 ± 60 µM
IC50 (α-amylase [1]; supplement ref [8]): 107 ± 6 µM

Structure (SMILES): O=C1C[C@@H](c2ccc(O)cc2)Oc2cc(O)cc(O)c21 [Naringenin]
IC50 (α-amylase [1]; supplement ref [3]): 21.9 ± 3.21 µM

Structure (SMILES): COc1cc(-c2[o+]c3cc(O)cc(O)c3cc2O[C@@H]2O[C@H](CO)[C@@H](O)[C@H](O)[C@H]2O)ccc1O [Peonidin-3-glucoside]
IC50 (α-amylase [1]; supplement ref [5]): 75 ± 7 µM

Structure (SMILES): O=C(O)c1ccc(O)c(O)c1 [Protocatechuic acid]
IC50 (α-amylase [1]; supplement ref [10]): 2650 ± 160 µM

Structure (SMILES): O=c1c(O)c(-c2ccc(O)c(O)c2)oc2cc(OC3OC(CO)C(O)C(O)C3O)c(O)c(O)c12 [Quercetagetin-7-O-β-D-glucopyranoside]
IC50 (α-amylase [1]; supplement ref [3]): 8.04 ± 0.69 µM

Structure (SMILES): COc1c(-c2ccc(O)c(O)c2)oc2cc(O)cc(O)c2c1=O [Quercetin-3-methylether, quercetin-3-methyl ether]
IC50 [2]: 6370 ± 110 µM
IC50 (α-amylase [1]; supplement ref [3]): 13.6 ± 2.04 µM

IC50 [2]: 5010 ± 70 µM
Structure (SMILES): COc1cc(O)c2c(=O)c(O)c(-c3ccc(O)c(O)c3)oc2c1 [Quercetin-7-methylether, quercetin-7-methyl ether]

IC50 [2]: 7000 ± 90 µM
Structure (SMILES): O=C(/C=C/c1ccc(O)c(O)c1)O[C@H](Cc1ccc(O)c(O)c1)C(=O)O [Rosmarinic Acid, rosmarinic acid]

Structure (SMILES): O=C(O)c1ccccc1O [Salicylic acid]
IC50 (α-amylase [1]; supplement ref [13]): 13000 µM

Structure (SMILES): COc1cc(/C=C/C(=O)O)cc(OC)c1O [Sinapic acid]
IC50 (α-amylase [1]; supplement ref [13]): 37000 µM

Structure (SMILES): COc1cc(C(=O)O)cc(OC)c1O [Syringic acid]
IC50 (α-amylase [1]; supplement ref [10]): 1980 ± 10 µM

Structure (SMILES): COc1cc(C(=O)O)ccc1O [Vanillic acid]
IC50 (α-amylase [1]; supplement ref [10]): 2050 ± 10 µM

Structure (SMILES): COc1cc(C=O)ccc1O [Vanillin]
IC50 (α-amylase [1]; supplement ref [13]): 71000 µM

Structure (SMILES): O=C(O)C=Cc1ccc(O)cc1 [p-Coumaric acid]
IC50 (α-amylase [1]; supplement ref [13]): 34100 µM
